According to PubChem BioAssay AID2060627 (Molecular Pharmacology Branch, DTP, NCI, 2025):
Where “and” joins values, the source holds several entries; their conditions need not be identical. Equal values may be shown once. Blank lines part the entries; values can stand above or below the compound they belong to.

Test system: 156681-154-R-J1-PDC complex spheroid viability
Assay: Anticancer human tumor 156681-154-R-J1-PDC patient-derived melanoma cell line growth inhibition [CLK]
Conditions: for viability, T/C: stronger effect = lower value
Procedure, shortened: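 Multi-cell-type spheroids combined patient-derived tumor cells with HUVEC endothelial cells and human mesenchymal stem cells. Paired agents were dosed in half-log steps down from about clinical Cmax, or from 10 microM where Cmax was unknown.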

[1] = curve of first compound, second compound 0.0316 µM
[2] = curve of first compound, second compound 0.1 µM
[3] = curve of first compound, second compound 0.316 µM
[4] = curve of first compound, second compound 1 µM
[5] = curve of first compound, second compound 3.16 µM
[6] = curve of first compound, second compound 10 µM
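Note: spheroids exposed to the agents for seven days.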
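Throughout, for viability, T/C: 100% = DMSO vehicle control viability.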

IC50 (curve of compound): > 100 nM
Compound: Cn1ncnc1[C@H]1c2n[nH]c(=O)c3cc(F)cc(c23)N[C@@H]1c1ccc(F)cc1
viability, T/C (compound 0.000316 µM): 87.6% and 89% | viability, T/C (compound 0.001 µM): 88.1% and 94.1% | viability, T/C (compound 0.00316 µM): 91.8% and 78.8% | viability, T/C (compound 0.01 µM): 80.4% and 83% | viability, T/C (compound 0.0316 µM): 60.7% and 65.9% | viability, T/C (compound 0.1 µM): 57% and 63.1%

IC50 [1]: > 300 nM | IC50 [2]: > 300 nM | IC50 [3]: > 300 nM | IC50 [4]: 242 nM | IC50 [5]: 2.45 nM | IC50 [6]: < 0.949 nM
Compound: C=CC(=O)Nc1cc(Nc2nccc(-c3cn(C)c4ccccc34)n2)c(OC)cc1N(C)CCN(C)C + CNC(=O)c1ccc(Nc2nc(OC3CCCC3)c3c(-c4ccc5nc(C)oc5c4)c[nH]c3n2)c(OC)c1
viability, T/C (second compound 0.0316 µM, first compound 0.000949 µM): 82.8% | viability, T/C (second compound 0.0316 µM, first compound 0.003 µM): 97.7% | viability, T/C (second compound 0.0316 µM, first compound 0.00949 µM): 90.6% | viability, T/C (second compound 0.0316 µM, first compound 0.03 µM): 111% | viability, T/C (second compound 0.0316 µM, first compound 0.0949 µM): 109% | viability, T/C (second compound 0.0316 µM, first compound 0.3 µM): 90% | viability, T/C (second compound 0.1 µM, first compound 0.000949 µM): 67.7% | viability, T/C (second compound 0.1 µM, first compound 0.003 µM): 64.1% | viability, T/C (second compound 0.1 µM, first compound 0.00949 µM): 61.8% | viability, T/C (second compound 0.1 µM, first compound 0.03 µM): 68.5% | viability, T/C (second compound 0.1 µM, first compound 0.0949 µM): 64.3% | viability, T/C (second compound 0.1 µM, first compound 0.3 µM): 64.8% | viability, T/C (second compound 0.316 µM, first compound 0.000949 µM): 71.5% | viability, T/C (second compound 0.316 µM, first compound 0.003 µM): 64.8% | viability, T/C (second compound 0.316 µM, first compound 0.00949 µM): 83.1% | viability, T/C (second compound 0.316 µM, first compound 0.03 µM): 62.7% | viability, T/C (second compound 0.316 µM, first compound 0.0949 µM): 63.2% | viability, T/C (second compound 0.316 µM, first compound 0.3 µM): 64% | viability, T/C (second compound 1 µM, first compound 0.000949 µM): 62.1% | viability, T/C (second compound 1 µM, first compound 0.003 µM): 56% | viability, T/C (second compound 1 µM, first compound 0.00949 µM): 53.5% | viability, T/C (second compound 1 µM, first compound 0.03 µM): 48.2% | viability, T/C (second compound 1 µM, first compound 0.0949 µM): 64.8% | viability, T/C (second compound 1 µM, first compound 0.3 µM): 43.6% | viability, T/C (second compound 3.16 µM, first compound 0.000949 µM): 50.1% | viability, T/C (second compound 3.16 µM, first compound 0.003 µM): 57.6% | viability, T/C (second compound 3.16 µM, first compound 0.00949 µM): 35.2% | viability, T/C (second compound 3.16 µM, first compound 0.03 µM): 47.2% | viability, T/C (second compound 3.16 µM, first compound 0.0949 µM): 37.9% | viability, T/C (second compound 3.16 µM, first compound 0.3 µM): 29.1% | viability, T/C (second compound 10 µM, first compound 0.000949 µM): 44.9% | viability, T/C (second compound 10 µM, first compound 0.003 µM): 41.8% | viability, T/C (second compound 10 µM, first compound 0.00949 µM): 31.9% | viability, T/C (second compound 10 µM, first compound 0.03 µM): 43.1% | viability, T/C (second compound 10 µM, first compound 0.0949 µM): 45% | viability, T/C (second compound 10 µM, first compound 0.3 µM): 24.2%

Compound: CCc1c2c(nc3ccc(O)cc13)-c1cc3c(c(=O)n1C2)COC(=O)[C@]3(O)CC + CN1CCN(c2cc(C(=O)Nc3cc4cc(-c5cnn(C)c5)ccc4cn3)ccn2)CC1
IC50 [1]: < 3.16 nM | IC50 [2]: < 3.16 nM | IC50 [3]: < 3.16 nM | IC50 [4]: < 3.16 nM | IC50 [5]: < 3.16 nM | IC50 [6]: < 3.16 nM | viability, T/C (second compound 0.0316 µM, first compound 0.00316 µM): 42.5% | viability, T/C (second compound 0.0316 µM, first compound 0.01 µM): 14.9% | viability, T/C (second compound 0.0316 µM, first compound 0.0316 µM): 15% | viability, T/C (second compound 0.0316 µM, first compound 0.1 µM): 16.9% | viability, T/C (second compound 0.0316 µM, first compound 0.316 µM): 17.2% | viability, T/C (second compound 0.0316 µM, first compound 1 µM): 4.31% | viability, T/C (second compound 0.1 µM, first compound 0.00316 µM): 24.5% | viability, T/C (second compound 0.1 µM, first compound 0.01 µM): 15.2% | viability, T/C (second compound 0.1 µM, first compound 0.0316 µM): 12.1% | viability, T/C (second compound 0.1 µM, first compound 0.1 µM): 16.4% | viability, T/C (second compound 0.1 µM, first compound 0.316 µM): 13.9% | viability, T/C (second compound 0.1 µM, first compound 1 µM): 2.11% | viability, T/C (second compound 0.316 µM, first compound 0.00316 µM): 12.3% | viability, T/C (second compound 0.316 µM, first compound 0.01 µM): 12.3% | viability, T/C (second compound 0.316 µM, first compound 0.0316 µM): 14.7% | viability, T/C (second compound 0.316 µM, first compound 0.1 µM): 5.42% | viability, T/C (second compound 0.316 µM, first compound 0.316 µM): 1.97% | viability, T/C (second compound 0.316 µM, first compound 1 µM): 1.05% | viability, T/C (second compound 1 µM, first compound 0.00316 µM): 0.13% | viability, T/C (second compound 1 µM, first compound 0.01 µM): 0.25% | viability, T/C (second compound 1 µM, first compound 0.0316 µM): 0.33% | viability, T/C (second compound 1 µM, first compound 0.1 µM): 2.85% | viability, T/C (second compound 1 µM, first compound 0.316 µM): 2.44% | viability, T/C (second compound 1 µM, first compound 1 µM): 0.97% | viability, T/C (second compound 3.16 µM, first compound 0.00316 µM): 0.1% | viability, T/C (second compound 3.16 µM, first compound 0.01 µM): 2.44% | viability, T/C (second compound 3.16 µM, first compound 0.0316 µM): 1.86% | viability, T/C (second compound 3.16 µM, first compound 0.1 µM): 0.73% | viability, T/C (second compound 3.16 µM, first compound 0.316 µM): 1.39% | viability, T/C (second compound 3.16 µM, first compound 1 µM): 0.88% | viability, T/C (second compound 10 µM, first compound 0.00316 µM): 0.64% | viability, T/C (second compound 10 µM, first compound 0.01 µM): 3.44% | viability, T/C (second compound 10 µM, first compound 0.0316 µM): 2.3% | viability, T/C (second compound 10 µM, first compound 0.1 µM): 1.35% | viability, T/C (second compound 10 µM, first compound 0.316 µM): 2.63% | viability, T/C (second compound 10 µM, first compound 1 µM): 2.01%
